These results are taken from ChEMBL document CHEMBL1151882, “Carbonic anhydrase inhibitors. Inhibition of the fungal beta-carbonic anhydrases from Candida albicans and Cryptococcus neoformans with boronic acids” (Bioorg Med Chem Lett, 2009).

The target in experiment [1] is T1, Carbonic anhydrase (Candida albicans (strain SC5314 / ATCC MYA-2876) (Yeast), UniProt Q5AJ71).
T1 sequence (Q5AJ71 whole entry): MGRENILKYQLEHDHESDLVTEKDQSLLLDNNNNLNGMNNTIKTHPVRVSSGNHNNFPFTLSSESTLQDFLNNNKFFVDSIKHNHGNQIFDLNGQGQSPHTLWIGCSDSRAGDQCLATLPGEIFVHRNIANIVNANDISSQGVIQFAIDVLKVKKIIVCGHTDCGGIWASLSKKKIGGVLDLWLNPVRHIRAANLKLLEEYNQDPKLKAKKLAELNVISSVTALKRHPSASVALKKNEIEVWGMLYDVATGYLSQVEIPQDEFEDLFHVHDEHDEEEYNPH

Experiment [2] concerns the target Carbonic anhydrase 1 (Homo sapiens, UniProt P00915).
Experiment [3] addresses Carbonic anhydrase 2 (Homo sapiens, UniProt P00918).

Chain of Carbonic anhydrase 1 (P00915 whole entry): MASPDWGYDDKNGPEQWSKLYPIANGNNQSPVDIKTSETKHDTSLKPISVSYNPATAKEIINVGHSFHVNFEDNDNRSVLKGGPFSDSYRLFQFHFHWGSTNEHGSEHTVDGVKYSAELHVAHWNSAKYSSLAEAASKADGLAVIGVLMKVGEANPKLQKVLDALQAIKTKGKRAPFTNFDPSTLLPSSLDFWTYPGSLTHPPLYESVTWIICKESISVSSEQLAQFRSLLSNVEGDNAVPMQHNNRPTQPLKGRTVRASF

As a reminder, the Ki is a dissociation constant, usually derived from enzyme kinetics or from competition with a known ligand. Read a low Ki as a stronger hold on the target. The compound `OB(O)c1ccc2ccccc2c1` yielded a Ki in experiment [1] of 9.3 µM.
Take `OB(O)c1ccc(Br)cc1`: the inhibition constant (Ki) in experiment [1] came out at 15.9 µM; in experiment [2], 11.7 µM; in experiment [3] it was 7 µM.
For `COc1ccc(B(O)O)cc1`, the values for the inhibition constant Ki in experiment [1], in experiment [2] and in experiment [3] were 15.6 µM, 10.9 µM and 7.9 µM, respectively.
Regarding `OB(O)/C=C/c1ccc(-c2ccccc2)cc1`, the Ki in experiment [1] was found to be 42.3 µM; in experiment [3], 373 µM.
`OB(O)c1ccc(Oc2ccccc2)cc1`: the inhibition constant (Ki) in experiment [1] turned out to be 8.6 µM; in experiment [2], 6 µM; in experiment [3], 11.5 µM.
With `OB(O)/C=C/Cc1ccccc1`, the Ki in experiment [1] was 633 µM; in experiment [2], 8.6 µM; in experiment [3], 18.1 µM.
For the compound `Cc1ccc(/C=C/B(O)O)cc1`, the results for the Ki in experiment [1] and in experiment [3] were 460 µM and 617 µM, respectively.
The compound `CCCCc1ccc(B(O)O)cc1` had a Ki in experiment [1] of 8 µM.
The same measure, in the same setting: the same measure for `OB(O)/C=C/c1ccc(-c2ccc(C(F)(F)F)cc2)cc1`: 5210 µM; for `OB(O)c1ccc(-c2ccccc2)cc1` [BIPHENYLBORONIC ACID]: 7.8 µM.
Consider `OB(O)c1ccccc1` [PHENYLBORONIC ACID], for which the Ki in experiment [2] worked out at 1560 µM; in experiment [3], 1050 µM.
In the case of `OB(O)/C=C/c1ccccc1` [STYRYLBORONIC ACID], the Ki in experiment [1] is 779 µM; in experiment [3], 534 µM.
Turning to `Cc1ccc(B(O)O)cc1` [TOLYL BORONIC ACID], the Ki in experiment [1] is 9 µM; in experiment [2], 278 µM; in experiment [3], 10.8 µM.
